We go through 6 molecules from patent publication US20230358769A1, “CLOT […] FOR QUALITY MONITORING OF PLATELET PRODUCTS” (THE GOVERNMENT OF THE UNITED STATES AS REPRESENTED BY THE …, priority 2022, published 2023).

In experiment [1] the test system is platelets in platelet rich plasma (PRP). Briefly: Microplate clot retraction method (thrombin-activated platelet rich plasma, O.D. 350 nm kinetics). In kind it is cell-based, human. The note with it: for clot densification phase (phase 3) of the reaction kinetic curve: at the highest levels of inhibition. The procedure:
Whole blood was collected in acid citrate dextrose tubes (ACD-A; BD Vacutainer, Franklin Lakes NJ) from healthy volunteers in accordance with a U.S. Army Research and Development Command approved protocol (USAISR L-20-003). Whole blood was centrifuged at 200×g for 10 minutes and platelet rich plasma (PRP) was obtained from the upper layer. Platelet poor plasma (PPP) was recovered from the remaining volume of the ACD-A tube after centrifugation at 3,000 times gravity (×g) for 10 minutes. To obtain apheresis platelets, the Trima Accel 7 (Terumo, Lakewood, CO) system was used for collection in either autologous plasma or Isoplate (65% Isoplate, 35% plasma). Platelet concentrations were determined on an Advia® 2120i (Siemens, Malvern, PA) and adjusted to 250,000 platelets/μL with autologous PPP, unless indicated otherwise.
Individual wells of a 96-well polystyrene microplate were coated with 150 μL of anti-adherence rinse solution (Stem Cell Technologies, Vancouver, Canada) and the microplate was centrifuged for 10 minutes at 1.300×g. The anti-adherence coating solution was aspirated and the coated wells were washed once with phosphate buffered saline. After washing, one side of each coated well was scored with an 18 Gauge (Ga) needle. Five μL of 30 U/ml thrombin (Haematologic Technologies, East Junction, VT) were added to each coated and scored well to initiate platelet aggregation, clot formation, and subsequent clot retraction.
PRP was supplemented with 6 mM CaCl2 (Sigma, St. Louis, MO) before aliquoting 180 μL to wells that were adjacent to the thrombin-containing (reaction) wells. The transfer of PRP to adjacent (staging) wells allowed for simultaneous transfer of multiple samples to the reaction wells using a multichannel pipette. The microplate was then loaded into a Synergy™ Neo2 microplate reader, and 145 μL of re-calcified PRP were transferred from the staging well to the reaction well. The plate scan was immediately started after addition of PRP. The plate scan protocol consisted of: temperature=37° C., assay duration=30 minutes, read interval=5 seconds, kinetic absorbance wavelength=350 nm, well scan absorbance wavelength=350 nm. After the plate scan protocol was completed, the plate was discarded and the data were exported as text files.
When indicated, the concentrations of platelets, CaCl2, or thrombin were varied to identify the optimal assay conditions for clot retraction. Additionally, PRP was pre-treated with increasing concentrations of inhibitors to platelet integrin αIIbβ3 (Eptifibatide, Sigma, St. Louis, MO), platelet-fibrin interaction (RGDS, Cayman Chemical, Ann Arbor, MI), and Src-family kinase (PP2, Sigma). Vehicle controls were the solvent used for the respective compound. Each treatment was performed in at least duplicate technical replicates.
Text files containing the optical density (O.D.) values were imported into R v4.0.5. Parameters of Rate of Clot Formation, Rate of Clot Retraction, Maximum O.D., Retraction Coefficient, Time to Maximum O.D., and Retraction Time were derived for each sample. Algorithms to extract parameters are described in Table 2, below.
Briefly, for Rates of Clot Formation and Retraction, a sliding window procedure was used to fit a linear model to a subset of 20 consecutive data points (k=20). The slope coefficient was extracted from each linear model and stored in an array. The Rates of Clot Formation and Retraction were defined as the maximum and minimum values, respectively, in the array. […] The data points represent donors and horizontal bars depicts medians. The Maximum and Minimum O.D. values were defined as the maximum and minimum readings, respectively. The Retraction Coefficient was defined as the difference between the Maximum and Minimum O.D. values, divided by the Maximum O.D. value. The Time to Maximum O.D. was defined as the time-point in which the Maximum O.D. value was observed. […]

Experiment [2] relates to platelet rich plasma (PRP). Description: Clot retraction assay in 2% Tween coated wells (optimization of assay agonist). The note with it: 0.5, 1, 2 and 4 NIH units of thrombin, n=4. In kind it is cell-based, human. The procedure: Bottom halves of the individual wells in a 96-well plate were coated with 2% Tween and left in a vertical position inside a modified chamber for 90 minutes at room temperature. The coating solutions were then aspirated and allowed to air dry under the hood for 15 minutes. Whole blood collected in ACD tubes from healthy volunteers was subjected to centrifugation at 200×g for 10 minutes to obtain platelet rich plasma (PRP), followed by a second centrifugation at 3000×g for 10 minutes to obtain platelet poor plasma (PPP). When needed, platelet concentrations in the PRP were adjusted to desired levels using PPP. PRP samples (145 μL) were recalcified with 20 mM CaCl2 were then transferred into wells containing five μL of two NIH U/mLs of Thrombin. Further, the changes in absorbance during clot gelation and retraction were tracked at 350 nm using a microplate spectrophotometer for 90 minutes at 37° C.
To evaluate the appropriate thrombin concentration for the best outcome in the assay, we tested at 0.5, 1, 2 and 4 NIH units of thrombin (n=4). Once coagulation was initiated with thrombin, the clotting kinetics were characterized by a very short lag phase of initiation, a log phase of fibrin polymerization, a fibrin densification phase of platelet mediated fibrin remodeling, and a final rapid CR phase of declining absorbance. […]

Where a SMILES comes first, the peptide text is derived from it. Bridges are numbered along the chain shown (N, C = ends). [ ]: non-standard residue; d: D form. hArg = N=C(N)NCCCC[C@H](N)C(=O)O; Mpa = O=C(O)CCS

For the molecule “Arg-Gly-Asp-Ser (RGDS; printed: Arg-Gly-Asp-Ser)”, in experiment [1], the “clot densification phase (phase 3) of the reaction kinetic curve” value is recorded as “absent or greatly diminished”. On the same count and under the same terms, the same measure for `N=C(N)NCCCC[C@@H]1NC(=O)CCSSC[C@@H](C(N)=O)NC(=O)[C@@H]2CCCN2C(=O)[C@H](Cc2c[nH]c3ccccc23)NC(=O)[C@H](CC(=O)O)NC(=O)CNC1=O` [Eptifibatide] ([Mpa][hArg]GDWPC-NH2; disulfide 1-7): “absent or greatly diminished”. For `C=C1[C@@H](C)[C@H]2[C@H](Cc3ccccc3)NC(=O)[C@]23[C@H](OC(C)=O)/C=C/[C@@](C)(O)C(=O)[C@@H](C)C/C=C/[C@H]3[C@@H]1O` [cytochalasin D], in experiment [1] (cytochalasin D pretreatment, n=5, p<0.001), the “all parameters except Rate of Clot Formation and Maximum O.D., differences among treatment levels” value is reported as “significant differences”. Further, the “dose dependence of the differences among conditions” value in experiment [1] (cytochalasin D pretreatment, greatest departure from vehicle at highest concentrations) is “followed the dosing level”. As for `CC(C)(C)n1nc(-c2ccc(Cl)cc2)c2c(N)ncnc21` [PP2], in experiment [1], the “clot densification phase (phase 3) of the reaction kinetic curve” value was “absent or greatly diminished”.

Take thrombin: in experiment [1] (thrombin concentration varied, n=5), the “effect of thrombin concentration on the method's results” value is recorded as “significantly affected the method's results in a concentration dependent manner”. For the same molecule, the “CR at 60 minutes after clot initiation” value in experiment [2] is 100%. In the case of `[Ca+2].[Cl-].[Cl-]` [CaCl2, Calcium chloride], in experiment [1] (CaCl2 concentration varied, n=5, highest levels), the “clot formation and clot retraction at the highest CaCl2 levels” value is reported as “clot formation, but failure in clot retraction”. In addition, in experiment [1] (range of 0 to 6 mM CaCl2), the “differences in parameters across CaCl2 concentrations” value is “No differences”.
